Data published in ChEMBL document CHEMBL2176898, “3-Alkoxy-1,2-Dioxolanes: Synthesis and Evaluation as Potential Antimalarial Agents” (ACS Med Chem Lett, 2011).

System: Plasmodium falciparum
Assay: microbe, parasite or virus in culture
Details: NF54
Description: Antimicrobial activity against Plasmodium falciparum NF54

CCCCC1(C)CC(C)(OCC23CC4CC(CC(C4)C2)C3)OO1 (mixture of isomers)
IC50: 140 nM

COC1(C2CCCCC2)CC2(CCCCC2)OO1 (stereo unspecified)
IC50: 9.2 nM

COC1(Cc2ccccc2)CC(C)(C)OO1 (stereo unspecified)
IC50: 970 nM

CCCCC1(C)CC(C)(OCCC)OO1 (mixture of isomers)
IC50: > 4000 nM

C[C@H]1[C@H](OC(=O)CCC(=O)O)O[C@@H]2O[C@@]3(C)CC[C@H]4[C@H](C)CC[C@@H]1[C@@]24OO3 [ARTESUNATE]
IC50: 2.5 nM

CC1(OCC23CC4CC(CC(C4)C2)C3)CC2(CCCCC2)OO1 (stereo unspecified)
IC50: 35 nM

CCCCC1(C)CC(C)(OCCc2ccccc2)OO1 (mixture of isomers)
IC50: 76 nM

CC1(C)CC(C)(OCC23CC4CC(CC(C4)C2)C3)OO1 (stereo unspecified)
IC50: 290 nM

CCCCOC1(C)CC(C)(C)OO1 (stereo unspecified)
IC50: > 10000 nM

CC1(OCCc2ccccc2)CC2(CCCCC2)OO1 (stereo unspecified)
IC50: 9 nM

COC1(Cc2ccccc2)CC2(CCCCC2)OO1 (stereo unspecified)
IC50: 340 nM
